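Values below derive from 48-hour exposures of cells grown in 96-well plates, with endpoints linearly interpolated between the two concentrations bracketing the appropriate inhibition level. TGI denotes the concentration required for complete inhibition of growth.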
Columns and labels:
Assay in all cases: NCI-60 cell line screen, 48 h
[1] = system: 786-0 renal
[2] = system: A498 renal
[3] = system: A549 NSCLC
[4] = system: ACHN renal
[5] = system: CAKI-1 renal
[6] = system: CCRF-CEM leukemia
[7] = system: COLO 205 colon
[8] = system: DLD-1 colon
[9] = system: DMS 273 small cell lung
[10] = system: EKVX NSCLC
[11] = system: HCC-2998 colon
[12] = system: HCT-116 colon
[13] = system: HCT-15 colon
[14] = system: HL-60(TB) leukemia
[15] = system: HOP-18 NSCLC
[16] = system: HOP-62 NSCLC
[17] = system: HOP-92 NSCLC
[18] = system: HT29 colon
[19] = system: IGROV1 ovarian
[20] = system: K-562 leukemia
[21] = system: KM12 colon
[22] = system: KM20L2 colon
[23] = system: LOX IMVI melanoma
[24] = system: LXFL 529 NSCLC
[25] = system: M14 melanoma
[26] = system: MALME-3M melanoma
[27] = system: MOLT-4 leukemia
[28] = system: NCI-H226 lung
[29] = system: NCI-H23 lung
[30] = system: NCI-H460 lung
[31] = system: NCI-H522 lung
[32] = system: OVCAR-3 ovarian
[33] = system: OVCAR-4 ovarian
[34] = system: OVCAR-5 ovarian
[35] = system: OVCAR-8 ovarian
[36] = system: RPMI-8226 leukemia
[37] = system: SF-268 CNS
[38] = system: SF-295 CNS
[39] = system: SF-539 CNS
[40] = system: SK-MEL-2 melanoma
[41] = system: SK-MEL-5 melanoma
[42] = system: SK-OV-3 ovarian
[43] = system: SN12C renal
[44] = system: SNB-19 CNS
[45] = system: SNB-78 CNS
[46] = system: SW-620 colon
[47] = system: TK-10 renal
[48] = system: U251 CNS
[49] = system: UACC-257 melanoma
[50] = system: UACC-62 melanoma
[51] = system: UO-31 renal
[52] = system: XF 498 CNS
[53] = system: M19-MEL melanoma
[54] = system: SNB-75 CNS
[55] = system: SR leukemia

Measured: TGI

COC(=O)[C@H]1C2CC[C@@H]3C45C[C@@H](c6ccoc6)O[C@@H]4O[C@@H](O2)C31CCC5C (stereo partly drawn)
> 100 µM: [1] | [2] | [3] | [4] | [5] | [6] | [7] | [8] | [9] | [10] | [11] | [12] | [13] | [14] | [15] | [16] | [17] | [18] | [19] | [20] | [21] | [22] | [23] | [24] | [25] | [26] | [27] | [28] | [29] | [30] | [31] | [32] | [33] | [34] | [35] | [36] | [37] | [38] | [39] | [40] | [41] | [42] | [43] | [44] | [45] | [46] | [47] | [48] | [49] | [50] | [51] | [52]

CC(=O)Nc1ccc(S(=O)(=O)N/N=C(\C)CN2C(=O)c3ccccc3C2=O)cc1
> 100 µM: [1] | [2] | [3] | [4] | [5] | [6] | [7] | [8] | [9] | [10] | [11] | [12] | [13] | [14] | [15] | [16] | [18] | [19] | [20] | [21] | [22] | [24] | [25] | [53] | [26] | [27] | [28] | [29] | [30] | [31] | [32] | [33] | [34] | [35] | [36] | [38] | [39] | [40] | [41] | [42] | [43] | [44] | [54] | [45] | [55] | [46] | [47] | [48] | [49] | [50] | [51]
